Read-outs that look alike come from different tables or passages of the source.
Tests used:
Assay type in all cases: cell-based
[1] = test system: L. infantum MHOM/MA(BE)/67 amastigotes in primary peritoneal mouse macrophages; test: Leishmania infantum intracellular amastigote assay in mouse macrophages; conditions: Macrophage, 120 h
Procedure, shortened: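 Amastigotes harvested from infected hamster spleen infected primary peritoneal mouse macrophages (5×10^5 amastigotes/well, 2 h, 37 °C). Compounds then present 5 d at 37 °C, 5% CO2. Parasite burden counted by microscopy after Giemsa staining, as % of untreated controls; IC50 from sigmoidal variable-slope fit.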

[2] = test system: T. cruzi Tulahuen strain C2C4 containing the β-galactosidase (Lac Z) gene in rat skeletal myoblasts (L-6 cells); test: Trypanosoma cruzi C2C4 screening assay
Protocol: Example 113: Trypanosoma cruzi C2C4 Screening Assay Procedure
Rat skeletal myoblasts (L-6 cells) were seeded in 96-well microtiter plates at 2×10^3 cells/well in 100 μL RPMI 1640 medium with 10% FBS and 2 mM L-glutamine. After 24 h the medium was removed and replaced by 100 μL per well containing 5×10^3 trypomastigote forms of T. cruzi Tulahuen strain C2C4 containing the β-galactosidase (Lac Z) gene (Buckner, et al., Antimicrobial Agents and Chemotherapy, 40: 2592-2597 (1996)). After 48 h the medium was removed from the wells and replaced by 100 μL fresh medium with or without a serial drug dilution of the seven 3-fold dilution steps covering a range from 90 to 0.123 μg/mL. After 96 h of incubation the plates were inspected under an inverted microscope to assure growth of the controls and sterility. The substrate (50 μL) chlorophenol red-β-D-galactopyranoside (CPRG, Roche Diagnostics, Ltd) in 0.25% Nonidet P-40/PBS was added to all wells and a color reaction developed within 2-6 h which was read photometrically at 540 nm. Data were transferred into the graphic program Softmax Pro (Molecular Devices), which calculated IC50 values.

[3] = test system: Trypanosoma brucei rhodesiense STIB 900 strain; test: Trypanosoma brucei rhodesiense STIB 900 screening assay; conditions: 72 h
Procedure, shortened: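 Bloodstream forms of T. b. rhodesiense STIB 900 (10^4 per well) cultured with seven 3-fold drug dilutions (90 to 0.123 μg/mL) in MEM with 15% horse serum, 72 h, 37 °C, 5% CO2. Alamar Blue added for 2-4 h more; fluorescence read at ex 536/em 588 nm for IC50.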

[4] = test system: bloodstream forms of T. b. rhodesiense STIB 900; test: T. brucei rhodesiense STIB 900 growth inhibition assay; conditions: Trypanosoma brucei, 72 h
Procedure, shortened: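 Bloodstream-form STIB 900 (10^4/well) were cultured in supplemented MEM with 15% horse serum and compound (90 to 0.123 μg/ml, 3-fold steps) for 72 h at 37 °C, 5% CO2. Viability was read by Alamar Blue fluorescence (ex 536/em 588 nm) after a further 2-4 h.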

[5] = amastigotes in primary peritoneal mouse macrophages, 5 d, Giemsa staining, read-out: Inhibition of Organism Growth in Leishmania infantum MHOM/MA/BE/67, 5 d
[6] = L6, in L-6 cells, 96 h, CPRG, read-out: SCYNEXIS IC50: I Org. Growth T. cruzi Tulahuen C2C4 Lac Z, 4 d
[7] = STIB 900 bloodstream forms, Alamar Blue, protocol of Example 114, read-out: Swiss TPH T b rhodesiense IC50
[8] = read-out: IC50: I Org. Growth T. brucei rhodesiense STIB 900, 3 d [uM]
[9] = read-out: Inhibition of Organism Growth in Leishmania infantum MHOM/MA/BE/67, 5 d [uM]
[10] = L6, 96 h, read-out: SCYNEXIS IC50: I Org. Growth T. cruzi Tulahuen C2C4 Lac Z, 4 d [uM]
[11] = read-out: Swiss TPH T b rhodesiense IC50
[12] = bloodstream forms, Alamar Blue, protocol of Example 110, read-out: IC50: I Org. Growth T. brucei rhodesiense STIB 900, 3 d

SMILES | IC50 [1, 5] [µM] | IC50 [2, 6] [µM] | IC50 [3, 7] [nM] | IC50 [4, 8] [µM] | IC50 [1, 9] [µM] | IC50 [2, 10] [µM] | IC50 [3, 11] [nM] | IC50 [4, 12] [µM]
O=C(Nc1ccc2c(c1)B(O)OC2)c1cn(-c2ccc(F)cc2)nn1 [Example 60, 1-(4-Fluorophenyl)-N-(1-hydroxy-1,3-dihydrobenzo[c][1,2]oxaborol-6-yl)-1H-1,2,3-triazole-4-carboxamide] | < 3 | 0.06 to 0.1 | < 100 | – | – | – | – | –
O=C(Nc1ccc2c(c1)B(O)OC2)c1nnn(-c2ccccc2)c1C(F)(F)F [Example 68, N-(1-hydroxy-1,3-dihydrobenzo[c][1,2]oxaborol-6-yl)-1-phenyl-5-(trifluoromethyl)-1H-1,2,3-triazole-4-carboxamide] | – | – | – | < 0.1 | < 3 | 0.11 to 1 | < 100 | –
O=C(Nc1ccc2c(c1)B(O)OC2)c1nnn(-c2ccc(F)cc2)c1C(F)(F)F [Example 70, 1-(4-Fluorophenyl)-N-(1-hydroxy-1,3-dihydrobenzo[c][1,2]oxaborol-6-yl)-5-(trifluoromethyl)-1H-1,2,3-triazole-4-carboxamide] | < 3 | – | 100 to 250 | – | – | – | – | 0.31 to 10
O=C(Nc1ccc2c(c1)B(O)OC2)c1nnn(-c2cccnc2)c1C(F)(F)F [Example 71, N-(1-hydroxy-1,3-dihydrobenzo[c][1,2]oxaborol-6-yl)-1-(pyridin-3-yl)-5-(trifluoromethyl)-1H-1,2,3-triazole-4-carboxamide] | < 3 | – | 100 to 250 | – | – | – | – | 0.1 to 0.3
O=C(Nc1ccc2c(c1)B(O)OC2)c1nnn(-c2cccc(F)c2)c1C(F)(F)F [Example 69, 1-(3-Fluorophenyl)-N-(1-hydroxy-1,3-dihydrobenzo[c][1,2]oxaborol-6-yl)-5-(trifluoromethyl)-1H-1,2,3-triazole-4-carboxamide] | < 3 | – | 100 to 250 | – | – | – | – | 0.1 to 0.3
Cc1c(C(=O)Nc2ccc3c(c2)B(O)OC3)nnn1-c1ccccc1 [Example 89, A-(1-hydroxy-1,3-dihydrobenzo[c][1,2]oxaborol-6-yl)-5-methyl-1-phenyl-1H-1,2,3-triazole-4-carboxamide] | – | – | – | < 0.1 | 20 to 100 | < 0.06 | < 100 | –
O=C(Nc1ccc2c(c1)B(O)OC2)c1nnn(-c2ccccc2F)c1C(F)(F)F [Example 67, 1-(2-Fluorophenyl)-N-(1-hydroxy-1,3-dihydrobenzo[c][1,2]oxaborol-6-yl)-5-(trifluoromethyl)-1H-1,2,3-triazole-4-carboxamide] | 20 to 100 | – | 100 to 250 | – | – | – | – | 0.1 to 0.3
Cc1c(C(=O)Nc2ccc3c(c2)B(O)OC3)nnn1-c1ccccn1 [Example 84, N-(1-hydroxy-1,3-dihydrobenzo[c][1,2]oxaborol-6-yl)-5-methyl-1-(pyridin-2-yl)-1H-1,2,3-triazole-4-carboxamide] | < 3 | < 0.06 | – | – | – | – | – | < 0.1
Cc1c(C(=O)Nc2ccc3c(c2)B(O)OC3)nnn1-c1cccnc1 [Example 93, N-(1-hydroxy-1,3-dihydrobenzo[c][1,2]oxaborol-6-yl)-5-methyl-1-(pyridin-3-yl)-1H-1,2,3-triazole-4-carboxamide] | 20 to 100 | – | 260 to 2000 | – | – | – | – | 0.31 to 10
O=C(Nc1ccc2c(c1)B(O)OC2)c1cn(-c2ccccn2)nn1 [Example 61, N-(1-hydroxy-1,3-dihydrobenzo[c][1,2]oxaborol-6-yl)-1-(pyridin-2-yl)-1H-1,2,3-triazole-4-carboxamide] | < 3 | < 0.06 | 100 to 250 | – | – | – | – | < 0.1
